This data set can be described thus: Size, polydispersity index and surface charge of mRNA-LNP (Malvern Zetasizer Nano ZS90). The data set is classed as physicochemical. In short, it runs like this: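 Dynamic/electrophoretic light scattering of LNPs diluted in PBS to a final mRNA concentration of 1 μg/mL. Readouts were particle size, PDI and surface charge.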

As for `CCCCC/C=C\C/C=C\CCCCCCCCC(CCCCCCCC/C=C\C/C=C\CCCCC)OC(=O)CCCN(C)C` [MC3, DLin-MC3-DMA, reference compound], where the note is “mRNA-LNP made with the ionizable lipid at its optimal formulation (Table 2)”, the PDI is 0.174. Besides, the “size (nm) Number” value (mRNA-LNP made with the ionizable lipid at its optimal formulation (Table 2), diluted with PBS to 1 μg/mL mRNA) is 93 nm. The “Zeta (mV)” value (surface charge of mRNA-LNP made with the ionizable lipid at its optimal formulation (Table 2)) was −2.65 mV.

Source of the values: patent publication US20260184669A1, “LIPID COMPOUND AND COMPOSITION FOR DELIVERY OF ACTIVE SUBSTANCE” (KOREA RESEARCH INSTIUTE OF BIOSCIENCE AND BIOTECHNOLOGY, priority 2022, published 2026).
